Series [1] can be described thus: Solubility of SCAI-Form and API at pH 1 and pH 2. As to conditions: for Dissolution concentration at pH 1: stirred 15 minutes at 5 mg/mL, diluted 10 times with DW, measured value x 10; for Dissolution concentration at pH 1 / Dissolution concentration at pH 2: filtered; for Dissolution concentration at pH 2: stirred 15 minutes at 1 mg/mL. In kind it is physicochemical. The method, then:
Method for measuring solubility at pH 1: Stirred for 15 minutes at a concentration of 5 mg/mL, and then filtered, diluted 10 times with DW, and analyzed. (The value calculated as [measured value×10] is described in the results)
Method for measuring solubility at pH 2: Stirred for 15 minutes at a concentration of 1 mg/mL, and then filtered, and analyzed.

Series [2] concerns grade 3/4 CNV lesions. Nature of the series: Laser-induced CNV monkey model, fundus fluorescein angiography (FFA): leakage area and spot number. In kind it is in vivo, rhesus monkeys. The following applies: n = 6 eyes. An excerpt:
(§1) In this experiment, neovascularization was induced by damaging the choroid of both eyes using a laser in a monkey animal model, and then treated with drugs, and the efficacy is compared and evaluated by performing fundus fluorescein angiography (FFA) and optical coherence tomography (OCT) and measuring the neovascular area and spot number in the damaged area and the retinal lesion thickness.
(§2) Experimental CNV in monkey eyes was induced using a laser photocoagulation system (Vitra 532 nm, Quantel Medical, France).
(§3) Laser parameters: laser wavelength of 532 nm; spot size of 50 μm; energy of 600-800 mW; exposure time of 0.1 s.
(§4) A total of eight rhesus monkeys were used to induce CNV. The animals were anesthetized by intramuscular injection of ketamine hydrochloride (20 mg/kg) and dexmedetomidine hydrochloride (0.03 mg/kg), and then both eyes of each monkey were burned at 8-9 points around the macula, approximately one disc diameter from the macula. Care was taken not to aim the laser at the macula. The force used depended on the morphology of the subretinal bleb indicating a perforation of the Bruch's membrane. If no bled formed, higher energy was used at the next point. Color fundus photography (Retinal Camera TRC-50DX, Topcon Healthcare, Japan) was performed immediately after laser photocoagulation to observe the laser dots. Fundus fluorescein angiography (FFA) examination was performed 12 days after laser induction. Modeling was assessed as successful if there was one or more fluorescence leakage point of grade III and/or grade IV. Animals were enrolled in treatment and randomly divided into two groups based on the total leakage area of grade III and IV laser spots (Tables 10 and 11). The monkeys that were not included were returned to the PRIMED Animal Care Department.
(§5) Frequency: a total of 4 times, 1 time before laser photocoagulation, 1 time before administration (−Day 2), 1 time on Day 14 and 1 time on Day 28 after the first administration.
FFA image acquisition protocol: The FP images were taken, and then FFA was performed. After intravenous infusion of 10% sodium fluorescein (Alcon Laboratories, USA) at a dose of 0.075 mL/kg, rapid posterior polar photographs of the right eye were taken. The left eye was then used to monitor leakage of fluorescein related to the CNV lesion at serial time points (1, 5, and 10 minutes).
To quantify the area of CNV leakage, the total area of hyperfluorescence per eye was measured in late FFA images using Image J software (version 1.52a, Wayne Rasband National Institutes of Health, USA). Images from the later stage (10 min) were also used to calculate the amount and grade of CNV spots (Table 12).
(§6) Data analysis consisted of total area of fluorescein leakage points at one of the registered photocoagulation points, volume of fluorescein leakage points, and retinal thickness. Animal observations, photography, fundus and slit-lamp examinations were recorded and summarized in a report. The mean and standard deviation of the percent change in the total area of fluorescein leakage spots and the percent change in retinal thickness were calculated. Microsoft Office Excel 2013 and SPSS Statistics 13.0 were used for data processing and statistical analysis.

For series [3], the system named is grade 3/4 CNV lesions. As to the kind of experiment: Laser-induced CNV monkey model, optical coherence tomography (OCT): retinal thickness. The format is in vivo, rhesus monkeys. The following applies: n = 6 eyes; for Percent change of retinal thickness (Mean±SD): relative to (baseline − before laser induction), Example 15 (0.08%) eye drops.
Text: as §1, §2, §3, §4
Optical coherence tomography (OCT): Heidelberg Spectralis OCT plus.
as §5
OCT image acquisition protocol: FP and FFA images were taken, and then OCT scans were performed. Efforts were made to maintain uniformly illuminated and well-focused fundus images and high-quality OCT. Once the focus was aligned on the central macula by observation of the monitor screen, the monkey's eyes were identified by applying a high-speed macular scan process. Retinal thickness was automatically measured using software embedded in the Heidelberg OCT by measuring the distance between the internal border membrane and Bruch's membrane. Two membrane lines were found manually. The location with the maximum thickness around the grade III or IV point was selected for measurements. Heidelberg OCT unique has technical characteristics that ensure longitudinal measurements of retinal thickness at the same location.
as §6

[4] abbreviates: Baseline (after induction, before treatment), group later given Example 15 eye drops.
The mark [5] stands for this setting: Day 14, Example 15 (0.08%) eye drops 4 times/day.

This note sets out measurements from US20260108505A1, “EYE DROP COMPOSITION COMPRISING NOVEL MOLECULAR ASSOCIATION OF AXITINIB AND METHOD FOR PREPARING THE SAME” (SCAI THERAPEUTICS CO., LTD., priority 2024, published 2026).

Marks after values point to notes of the source that are not given here.

Take `CNC(=O)c1ccccc1Sc1ccc2c(/C=C/c3ccccn3)n[nH]c2c1` [API, axitinib]: in series [1], the “Dissolution concentration at pH 1” value was found to be 2.661 mg/mL and the “Dissolution concentration at pH 2” value was determined as 0.073 mg/mL.

Take `CNC(=O)c1ccccc1Sc1ccc2c(/C=C/c3ccccn3)n[nH]c2c1` [SCAI-005, axitinib]: the “Solubility of SCAI-Form relative to API” value in series [1] (from Table 6, pH 1 and pH 2) is recorded as “about twice”. The “Dissolution concentration at pH 1” value in series [1] (listed as SCAI-Form) was 4.363 mg/mL. In addition, the “Dissolution concentration at pH 2” value in series [1] (listed as SCAI-Form) came to 0.171 mg/mL. Also, the “Leakage area of grade 3/4 CNV lesions (Mean±SD)” value in series [2] (setting [4]) was 9.01 ± 2.25 mm^2; in series [2] (Day 14, Example 15 (0.08%) ophthalmic solution, 1 drop 50 μL, 4 times/day topical) it was 9.65 ± 4.85 mm^2; in series [2] (Day 28, Example 15 (0.08%) ophthalmic solution, 1 drop 50 μL, 4 times/day topical, p < 0.05 vs baseline), 6.46 ± 3.30* mm^2. The “Amount of grade 3/4 leakage spots” value is 47* in series [2] (setting [5]); 43* in series [2] (Day 28, Example 15 (0.08%) eye drops 4 times/day); 53 in series [2] (baseline, group later given Example 15 eye drops). In addition, the “Percent change of leakage area (Mean±SD)” value in series [2] (Day 14 vs baseline, Example 15 (0.08%) eye drops 4 times/day) is listed as 4.5 ± 39.1%; in series [2] (Day 28 vs baseline, Example 15 (0.08%) eye drops 4 times/day, p < 0.05 vs vehicle), −30.2 ± 28.9 %. The “Average retinal thickness of grade 3/4 CNV lesions (Mean±SD)” value is on record as 430 ± 45 μm in series [3] (setting [4]); 406 ± 68 μm in series [3] (setting [5]); 358 ± 40 μm in series [3] (Day 28, Example 15 (0.08%) eye drops 4 times/day, p < 0.01 vs baseline). Also, the “Percent change of retinal thickness (Mean±SD)” value in series [3] (Day 14) is −26.0 ± 26.3%; in series [3] (Day 28, p < 0.01 vs vehicle), −61.4 ± 16.0 %.
